{"source": "paper PMC6910946", "about": "“Multiple roles of Bet v 1 ligands in allergen stabilization and modulation of endosomal protease activity” (Allergy, 2019)", "key": {"Bet_v_1": {"molecular_target": "T1, Bet_v_1 (Betula pendula, UniProt P15494)", "T1 construct": "made in house", "T1 sequence (P15494 1-160)": "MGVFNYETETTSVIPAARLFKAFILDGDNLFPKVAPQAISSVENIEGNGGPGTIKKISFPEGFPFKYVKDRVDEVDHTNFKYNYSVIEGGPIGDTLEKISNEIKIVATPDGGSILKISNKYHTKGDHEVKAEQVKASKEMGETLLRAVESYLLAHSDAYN", "assay": "NMR spectroscopy (1H-15N HSQC) binding confirmation", "description": "Surface acoustic wave (SAW) technology and NMR spectroscopy were used to observe the interaction of Bet_v_1 with the selected compounds, including determination of the dissociation constant (K d). The influence of ligand binding on the secondary structure elements and the thermal stability of Bet_v_1 was monitored using circular dichroism (CD, JASCO J‐815 spectropolarimeter, Jasco) and Fourier transform infrared (FTIR) spectroscopy (Tensor II FTIR system, Bruker Optics Inc). A detailed description of these methods is available (Appendix [Link], [Link]).\nTo validate the interactions determined by SAW, we used NMR spectroscopy to test the specific binding of PPE1, LTA, LPS, and Kdo2 to Bet_v_1 (Table 1, Figure S2). […] The commercially available PPA1 was used as a substitute for PPE1 to identify the phytoprostane binding site(s).\nThe NMR data were acquired with either a 600 or 800 MHz Agilent DD2 spectrometer with a cryogenically cooled probe using the pulse sequence gNhsqc. Bet v 1 assignments were taken from.^2 The experiments were performed under the following conditions: LTA: 45 µM Bet v 1 and 300 µM LTA in PBS, 10% ^2H2O, 60 µM DSS; PPE1: 25 µM Bet v 1 and 2 µM PPE1 in PBS, 5% ^2H-(d6) DMSO, 10% ^2H2O, 60 µM DSS; PPA1: 100 µM Bet v 1 and 302 µM PPA1 (Cayman Chemical, MI, USA) in PBS, 8.7% ^2H-(d6) DMSO, 10% ^2H2O, 60 µM DSS; LPS: 100 µM Bet v 1 and 400 µM LPS in PBS pH 7.4, 10% ^2H2O, 60 µM DSS. Kdo2: 100 µM Bet v 1 and 422 µM Kdo2 in PBS pH 7.0, 10% ^2H2O, 8.6% ^2H-(d6) DMSO, 60 µM DSS."}, "cathepsin S": {"molecular_target": "T2, cathepsin S (Homo sapiens, UniProt P25774)", "T2 construct": "made in house", "T2 sequence (P25774 115-331)": "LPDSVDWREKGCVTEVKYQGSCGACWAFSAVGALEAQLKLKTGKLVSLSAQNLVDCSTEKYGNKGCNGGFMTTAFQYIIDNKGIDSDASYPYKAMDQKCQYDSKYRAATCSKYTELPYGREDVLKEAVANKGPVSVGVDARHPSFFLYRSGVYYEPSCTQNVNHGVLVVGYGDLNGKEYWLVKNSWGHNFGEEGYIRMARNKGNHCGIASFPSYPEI", "assay": "Enzymatic activity assay, fluorogenic substrate Z-VVR-AMC", "format": "biochemical", "experimental": "(§1) To evaluate the influence of Bet_v_1 ligands on cathepsin S and legumain activities, 10 nmol/L of protease was incubated with 100 µmol/L of ligand (unless otherwise stated) and 50 µmol/L of fluorogenic substrate in digestion buffer (0.1 mol/L sodium acetate pH 5.0, 0.1 mol/L sodium chloride, 5 mmol/L EDTA, and 2 mmol/L DTT), as described in the Appendix [Link], [Link]. The effect of birch pollen extract (BPE) (20‐200 µg/mL) on the cathepsin S and legumain activities was assessed in parallel. The inhibitory effect of PPE1 was assessed by replacing DTT with 0.5 mmol/L TCEP. Activities of recombinant rat cathepsin B (provided by Dr Lukas Mach) and papain (Merck) at 10 nmol/L were assayed using Z‐FR‐AMC (Bachem) as a fluorogenic substrate.\n(§2) For the detection of cathepsin or legumain activities in the microsomal fraction, 8 µg of microsomal extract was incubated with 50 µM fluorogenic substrate with or without inhibitor in assay buffer (100 mM citrate pH 4.8 and 2 mM DTT). The enzymatic reactions were carried out in a 50 µL reaction volume in a 96-half-well black flat bottom assay plate (Corning Inc., Corning, NY, USA) at 37°C. The fluorescence signal was recorded using a Tecan Infinite-200 plate reader (Tecan, Männedorf, Switzerland) at an excitation wavelength of 380 nm and emission wavelength of 460 nm for 15 min of continuous measurement with a 30-s interval reading. The fluorogenic substrates used for cathepsin S and legumain were Z-VVR-AMC and Z-AAN-AMC (Bachem, Bubendorf, Switzerland), respectively. The inhibitors used for cathepsin S and legumain were Z-FL-COCHO (Sigma-Aldrich, CA, USA) and Ac-YVAD-CMK (Bachem), respectively^11."}, "legumain": {"molecular_target": "T3, legumain (Homo sapiens, UniProt Q99538)", "T3 construct": "made in house", "T3 sequence (Q99538 18-433)": "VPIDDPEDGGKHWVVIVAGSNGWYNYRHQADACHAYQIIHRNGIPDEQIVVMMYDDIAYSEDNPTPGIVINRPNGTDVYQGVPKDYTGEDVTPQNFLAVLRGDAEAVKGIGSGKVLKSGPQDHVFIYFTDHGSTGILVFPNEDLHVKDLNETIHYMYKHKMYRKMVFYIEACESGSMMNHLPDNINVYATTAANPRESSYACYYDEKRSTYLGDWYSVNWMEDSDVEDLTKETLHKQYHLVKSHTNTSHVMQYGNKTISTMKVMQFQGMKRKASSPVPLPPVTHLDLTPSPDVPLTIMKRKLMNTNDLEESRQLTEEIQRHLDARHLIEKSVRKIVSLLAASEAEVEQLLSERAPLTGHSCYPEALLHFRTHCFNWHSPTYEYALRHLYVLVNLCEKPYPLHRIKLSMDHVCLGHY", "assay": "Enzymatic activity assay, fluorogenic substrate Z-AAN-AMC", "format": "biochemical", "settings": "PPE1 5 µmol/L (Figure 4D)", "experimental": "as §1\nas §2, with “The fluorogenic substrates used for cathepsin S and legumain were Z-VVR-AMC and Z-AAN-AMC (Bachem, Bubendorf, Switzerland), respectively. The inhibitors used for cathepsin S and legumain were Z-FL-COCHO (Sigma-Aldrich, CA, USA) and Ac-YVAD-CMK (Bachem), respectively^11.” left out"}, "papain": {"molecular_target": "T4, papain (Carica papaya, UniProt P00784)", "T4 construct": "purchased Merck", "T4 sequence (P00784 134-345)": "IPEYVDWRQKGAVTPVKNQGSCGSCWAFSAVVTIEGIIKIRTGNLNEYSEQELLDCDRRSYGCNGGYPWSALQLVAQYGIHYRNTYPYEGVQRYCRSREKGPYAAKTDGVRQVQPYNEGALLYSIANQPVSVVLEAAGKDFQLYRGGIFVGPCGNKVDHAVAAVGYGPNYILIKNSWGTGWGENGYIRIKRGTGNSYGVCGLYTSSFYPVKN", "assay": "Enzymatic activity assay, fluorogenic substrate Z-FR-AMC", "format": "biochemical", "settings": "PPE1 5 µmol/L, 15 min (Figure 4A)", "experimental": "as §1"}, "[1]": {"molecular_target": "T5, recombinant rat cathepsin B (Rattus norvegicus, UniProt P00787)", "T5 construct": "gift of Dr Lukas Mach", "T5 sequence (P00787 80-339)": "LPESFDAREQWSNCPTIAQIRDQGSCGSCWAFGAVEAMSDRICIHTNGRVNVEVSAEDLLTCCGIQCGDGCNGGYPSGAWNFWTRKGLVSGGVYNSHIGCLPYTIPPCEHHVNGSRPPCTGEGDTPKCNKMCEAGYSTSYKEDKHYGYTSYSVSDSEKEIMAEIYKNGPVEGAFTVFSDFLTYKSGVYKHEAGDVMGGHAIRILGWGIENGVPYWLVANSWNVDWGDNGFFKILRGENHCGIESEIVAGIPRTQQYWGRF", "assay": "Enzymatic activity assay, fluorogenic substrate Z-FR-AMC", "format": "biochemical", "settings": "PPE1 5 µmol/L, 15 min (Figure 4A)", "experimental": "as §1"}}, "data": [{"smiles": "CCC1C(=O)CC(O)C1/C=C/C(O)CCCCCCCC(=O)O", "note": "(centres unmarked) [PPE1, E1 phytoprostanes]", "values": [{"measurement": "NMR (binding confirmation, K d)", "setting": "Bet_v_1; 15N-labeled Bet v 1, direct measurement of Kd prevented by intermediate exchange", "value": "low to sub‐µmol/L"}, {"measurement": "specific binding to Bet v 1 (1H-15N HSQC spectra)", "setting": "Bet_v_1; absence vs presence of compound", "value": "specifically binds"}, {"measurement": "cathepsin S fluorogenic activity", "setting": "cathepsin S; 10 nmol/L protease, 100 µmol/L ligand, 50 µmol/L substrate, pH 5.0, 2 mmol/L DTT (Figure 3A)", "value": "specifically inhibited"}, {"measurement": "cathepsin S fluorogenic activity", "setting": "cathepsin S; PPE1 5 µmol/L, 15 min (Figure 4A)", "value": "inhibits"}, {"measurement": "cathepsin S activity in the presence of TCEP", "setting": "cathepsin S; PPE1 5 µmol/L, 0.5 mmol/L TCEP instead of DTT (Figure 4D)", "value": "completely abolished"}, {"measurement": "legumain activity in the presence of DTT and TCEP", "setting": "legumain", "value": "no inhibitory effect"}, {"measurement": "papain fluorogenic activity", "setting": "papain", "value": "inhibits"}, {"measurement": "rat cathepsin B fluorogenic activity", "setting": "[1]", "value": "inhibits"}]}]}
